Assay results as given in US10125139B2, “Pesticidally active polycyclic derivatives with sulfur substituted five-membered ring heterocycles” (Syngenta Participations AG, priority 2015, dated 2018).

Assays:
Assay type in all cases: in vivo
[1] = system: Plutella xylostella (Diamond Back Moth); experiment: Example B8: Plutella xylostella, artificial diet, L2 larvae; conditions: for percent effect (mortality or growth inhibition) at 200 ppm: Plutella xylostella, 120 h, application rate of 200 ppm, 5 days after infestation, L2 larvae, read-out: effect in at least one of the two categories (mortality or growth inhibition)
Experimental: Example B8: Plutella xylostella (Diamond Back Moth)
(§1) 24-well microtiter plates with artificial diet were treated with aqueous test solutions prepared from 10,000 ppm DMSO stock solutions by pipetting. After drying, the plates were infested with L2 larvae (10 to 15 per well). The samples were assessed for mortality and growth inhibition in comparison to untreated samples 5 days after infestation. The following compounds gave an effect of at least 80% in at least one of the two categories (mortality or growth inhibition) at an application rate of 200 ppm:
(§2) Insecticidal action against Diabrotica balteata (Corn root worm), Plutella xylostella (Diamond black moth), and Spodoptera littoralis (Egyptian cotton leaf worm). The tests were carried out as described in biological examples B2, B8 and B9, respectively, with the larval feeding/contact activity (mortality only) being reported as Breakpoint (BP80) values in parts per million (i.e. the lowest concentration which gives 80% larval mortality).

[2] = system: Diabrotica balteata (Corn Root Worm); experiment: Example B2: Diabrotica balteata, sprayed maize sprouts, L2 larvae; conditions: for percent effect (mortality or growth inhibition) at 200 ppm: Diabrotica balteata, 96 h, application rate of 200 ppm, 4 days after infestation, L2 larvae, read-out: effect in at least one of the two categories (mortality or growth inhibition)
Experimental: Example B2: Diabrotica balteata (Corn Root Worm)
as §1, with “Maize sprouts placed onto an agar layer in 24-well” for “24-well”, “plates” for “plates with artificial diet”, “spraying.” for “pipetting.”, “(6” for “(10”, “10” for “15”, “4” for “5”
as §2

[3] = system: Spodoptera littoralis (Egyptian Cotton Leaf Worm); experiment: Example B9: Spodoptera littoralis, cotton leaf discs, L1 larvae; conditions: for percent control (mortality, anti-feedant effect or growth inhibition) at 200 ppm: Spodoptera littoralis, foliar, 72 h, application rate of 200 ppm, 3 days after infestation, L1 larvae
Experimental: Example B9: Spodoptera littoralis (Egyptian Cotton Leaf Worm)
Cotton leaf discs were placed onto agar in 24-well microtiter plates and sprayed with aqueous test solutions prepared from 10,000 ppm DMSO stock solutions. After drying the leaf discs were infested with five L1 larvae. The samples were assessed for mortality, anti-feeding effect, and growth inhibition in comparison to untreated samples 3 days after infestation. Control of Spodoptera littoralis by a test sample is given when at least one of the categories mortality, anti-feedant effect, and growth inhibition is higher than the untreated sample.
as §2

[4] = system: Euschistus heros (Neotropical Brown Stink Bug); experiment: Example B3: Euschistus heros, sprayed soybean leaves, N2 nymphs; conditions: 120 h, application rate of 200 ppm, 5 days after infestation, read-out: effect in at least one of the two categories (mortality or growth inhibition)
Experimental: Example B3: Euschistus heros (Neotropical Brown Stink Bug)
Soybean leaves on agar in 24-well microtiter plates were sprayed with aqueous test solutions prepared from 10,000 ppm DMSO stock solutions. After drying the leaves were infested with N2 nymphs. The samples were assessed for mortality and growth inhibition in comparison to untreated samples 5 days after infestation. The following compounds gave an effect of at least 80% in at least one of the two categories (mortality or growth inhibition) at an application rate of 200 ppm: […]

[5] = system: Myzus persicae (Green Peach Aphid); experiment: Example B5: Myzus persicae feeding/contact activity, sunflower leaf discs; conditions: foliar, 144 h, application rate of 200 ppm, 6 days after infestation
Experimental: Example B5: Myzus persicae (Green Peach Aphid): Feeding/Contact Activity
Sunflower leaf discs were placed onto agar in a 24-well microtiter plate and sprayed with aqueous test solutions prepared from 10,000 ppm DMSO stock solutions. After drying, the leaf discs were infested with an aphid population of mixed ages. The samples were assessed for mortality 6 days after infestation.

SMILES | BP80 (Breakpoint, lowest concentration which gives 80% larval mortality) Plutella xylostella ([1]; larval feeding/contact activity, mortality only, test as in B8) [ppm] | BP80 (Breakpoint, lowest concentration which gives 80% larval mortality) Diabrotica balteata ([2]; larval feeding/contact activity, mortality only, test as in B2) [ppm] | BP80 (Breakpoint, lowest concentration which gives 80% larval mortality) Spodoptera littoralis ([3]; larval feeding/contact activity, mortality only, test as in B9) [ppm] | percent effect (mortality or growth inhibition) at 200 ppm [1] [%] | percent effect (mortality or growth inhibition) at 200 ppm [4] [%] | mortality at 200 ppm [5] [%] | percent effect (mortality or growth inhibition) at 200 ppm [2] [%] | percent control (mortality, anti-feedant effect or growth inhibition) at 200 ppm [3] [%]
CCS(=O)(=O)c1cc(C(F)(F)F)sc1-c1nc2cc(C(F)(F)F)ncc2n1C [Example V14.01, reference compound] | 50 | 50 | 50 | – | – | – | – | –
CCS(=O)(=O)c1cc(-n2ccc(C(F)(F)F)n2)sc1-c1nc2cc(C(F)(F)F)ncc2n1C [Example P-2, 2-[3-ethylsulfonyl-5-[3-(trifluoromethyl)pyrazol-1-yl]-2-thienyl]-3-methyl-6-(trifluoromethyl)imidazo[4,5-c]pyridine] | – | – | – | ≥ 80 | ≥ 80 | ≥ 80 | ≥ 80 | ≥ 80
CCS(=O)(=O)c1nc(Br)sc1-c1nc2cc(SC(F)(F)F)ncc2n1C [Example I-11] | – | – | – | – | – | – | ≥ 80 | –
CCSc1cc(-n2ccc(C(F)(F)F)n2)sc1-c1nc2cc(C(F)(F)F)ncc2n1C [Example P-3, 2-[3-ethylsulfanyl-5-[3-(trifluoromethyl)pyrazol-1-yl]-2-thienyl]-3-methyl-6-(trifluoromethyl)imidazo[4,5-c]pyridine] | – | – | – | ≥ 80 | – | – | ≥ 80 | –
CCS(=O)(=O)c1sc(C2CC2)nc1-c1nc2cc(C(F)(F)F)ncc2n1C [Example P-22, 2-cyclopropyl-5-ethylsulfonyl-4-[3-methyl-6-(trifluoromethyl)imidazo[4,5-c]pyridin-2-yl]thiazole] | – | – | – | ≥ 80 | ≥ 80 | ≥ 80 | ≥ 80 | ≥ 80
CCS(=O)(=O)c1sc(-c2ccc(Cl)cc2)nc1-c1nc2cc(C(F)(F)F)ncc2n1C [Example P-19, 2-(4-chlorophenyl)-5-ethylsulfonyl-4-[3-methyl-6-(trifluoromethyl)imidazo[4,5-c]pyridin-2-yl]thiazole] | – | – | – | – | – | – | ≥ 80 | ≥ 80
CCS(=O)(=O)c1sc(Br)nc1-c1nc2cc(C(F)(F)F)ncc2n1C [Example I-9, 2-bromo-5-ethylsulfonyl-4-[3-methyl-6-(trifluoromethyl)imidazo[4,5-c]pyridin-2-yl]thiazole] | – | – | – | – | – | – | ≥ 80 | –
CCS(=O)(=O)c1sc(-c2cc(F)cc(F)c2)nc1-c1nc2cc(SC(F)(F)F)ncc2n1C [Example P-26] | – | – | – | ≥ 80 | – | – | ≥ 80 | ≥ 80
CCS(=O)(=O)c1sc(-c2ccc(Cl)cc2)nc1-c1nc2cc(SC(F)(F)F)ncc2n1C [Example P-24] | – | – | – | ≥ 80 | – | – | – | ≥ 80
CCS(=O)(=O)c1c(-c2nc3cc(C(F)(F)F)ncc3n2C)sc(-c2ccc(Cl)cc2)c1Cl [Example P-8, 2-[4-chloro-5-(4-chlorophenyl)-3-ethylsulfonyl-2-thienyl]-3-methyl-6-(trifluoromethyl)imidazo[4,5-c]pyridine] | – | – | – | ≥ 80 | – | – | ≥ 80 | ≥ 80
CCS(=O)(=O)c1cc(I)sc1-c1nc2cc(SC(F)(F)F)ncc2n1C [Example I-8, 2-(3-ethylsulfonyl-5-iodo-2-thienyl)-3-methyl-6-(trifluoromethylsulfanyl)imidazo[4,5-c]pyridine] | – | – | – | ≥ 80 | ≥ 80 | ≥ 80 | ≥ 80 | ≥ 80
CCS(=O)(=O)c1cc(-n2ccc(C(F)(F)F)n2)sc1-c1nc2cc(C(F)(F)F)nnc2n1C [Example P-12, 6-[3-ethylsulfonyl-5-[3-(trifluoromethyl)pyrazol-1-yl]-2-thienyl]-7-methyl-3-(trifluoromethyl)imidazo[4,5-c]pyridazine] | – | – | – | ≥ 80 | ≥ 80 | ≥ 80 | ≥ 80 | ≥ 80
CCSc1sc(-n2ccc(C(F)(F)F)n2)nc1-c1nc2cc(C(F)(F)F)ncc2n1C [Example P-21, 5-ethylsulfanyl-4-[3-methyl-6-(trifluoromethyl)imidazo[4,5-c]pyridin-2-yl]-2-[3-(trifluoromethyl)pyrazol-1-yl]thiazole] | – | – | – | – | – | – | ≥ 80 | –
CCS(=O)(=O)c1sc(-n2ccc(C(F)(F)F)n2)nc1-c1nc2cc(C(F)(F)F)ncc2n1C [Example P-20, 5-ethylsulfonyl-4-[3-methyl-6-(trifluoromethyl)imidazo[4,5-c]pyridin-2-yl]-2-[3-(trifluoromethyl)pyrazol-1-yl]thiazole] | – | – | – | ≥ 80 | ≥ 80 | – | ≥ 80 | ≥ 80
CCSc1sc(Br)nc1-c1nc2cc(SC(F)(F)F)ncc2n1C [Example I-10] | – | – | – | ≥ 80 | – | – | – | –
CCSc1nc(Br)sc1-c1nc2cc(C(F)(F)F)ncc2n1C [Example I-5, 2-bromo-4-ethylsulfanyl-5-[3-methyl-6-(trifluoromethyl)imidazo[4,5-c]pyridin-2-yl]thiazole] | – | – | – | – | – | ≥ 80 | – | –
CCSc1c(-c2nc3cc(C(F)(F)F)ncc3n2C)sc(-c2ccc(Cl)cc2)c1Cl [Example P-7, 2-[4-chloro-5-(4-chlorophenyl)-3-ethylsulfanyl-2-thienyl]-3-methyl-6-(trifluoromethyl)imidazo[4,5-c]pyridine] | – | – | – | ≥ 80 | ≥ 80 | – | ≥ 80 | ≥ 80
CCS(=O)(=O)c1cc(-c2ncccn2)sc1-c1nc2cc(SC(F)(F)F)ncc2n1C [Example P-16, 2-(3-ethylsulfonyl-5-pyrimidin-2-yl-2-thienyl)-3-methyl-6-(trifluoromethylsulfanyl)imidazo[4,5-c]pyridine] | – | – | – | ≥ 80 | ≥ 80 | – | ≥ 80 | ≥ 80
CCS(=O)(=O)c1sc(-c2ncccn2)nc1-c1nc2cc(C(F)(F)F)ncc2n1C [Example P-23, 5-ethylsulfonyl-4-[3-methyl-6-(trifluoromethyl)imidazo[4,5-c]pyridin-2-yl]-2-pyrimidin-2-yl-thiazole] | – | – | – | ≥ 80 | – | – | ≥ 80 | ≥ 80
